In patent EP2607478A1, “Phenanthroline treated MSC” (Universiteit Twente, priority 2011, dated 2013):

Test system: MSCs
Experiment: Whole genome expression analysis (Illumina microarray) of treated MSCs
Type: cell-based, Human
Method: MSCs were seeded in T25 flasks at 5000 cells/cm^2 and allowed to attach overnight in proliferation medium. […] After 48 hours, RNA was isolated as described above. From 500 ng of RNA, cRNA was synthesized using the Illumina TotalPrep RNA amplification Kit (Ambion), according to the manufacturer's protocol and the quality of RNA and cRNA was verified on a Bioanalyzer 2100 (Agilent). Microarrays were performed using Illumina HT-12 v4 expression Beadchips, according to the manufacturer's protocol. Briefly, 750 ng of cRNA was hybridized on the array overnight after which the array was washed and blocked. Then, by addition of streptavidin Cy-3 a fluorescent signal was developed. Arrays were scanned on an Illumina iScan reader and raw intensity values were background corrected in GenomeStudio (Illumina). Further data processing and statistical testing were performed with R and Bioconductor statistical software (www.bioconductor.org), using package lumi. Raw intensity values were transformed using variance stabilization and a quantile normalization was performed. A linear modelling approach with empirical Bayesian methods, as implemented in Limma package (54), was applied for differential expression analysis of the resulting probe-level expression values. A gene list, containing only those genes with an absolute 1.5-fold change between different treatments, was uploaded to Ingenuity Pathway Analysis (IPA) software and used for core analysis. Pathways or networks with a p-value of 0.05 were considered statistically significant.

With `c1cnc2c(c1)ccc1cccnc12` [PHE, 1, 10-phenanthroline] the “logFC(D142_PHE - D142_BAS) IL6” value (ProbeID ILMN_1699651) was -2,31, the “logFC(D142_PHE - D142_BAS) RRAGD” value (ProbeID ILMN_1699772) was 3,13 and the “logFC(D142_PHE - D142_BAS) TSPAN18” value (ProbeID ILMN_1699980) was -2,03. For the same molecule, the “logFC(D142_PHE - D142_BAS) QPRT” value (ProbeID ILMN_1700268, PHE vs BAS) was -2,59, the “logFC(D142_PHE - D142_BAS) LPAR1” value (ProbeID ILMN_1701441, PHE vs BAS) was -2,35 and the “logFC(D142_PHE - D142_BAS) SULF1” value (ProbeID ILMN_1702363, PHE vs BAS) was -2,90. The “logFC(D142_PHE - D142_BAS) AXUD1” value (ProbeID ILMN_1703123) was 2,51, the “logFC(D142_PHE - D142_BAS) FEM1C” value (ProbeID ILMN_1703330) was 2,53 and the “logFC(D142_PHE - D142_BAS) FHL3” value (ProbeID ILMN_1703558) was -2,34. The “logFC(D142_PHE - D142_BAS) TNFRSF19” value (ProbeID ILMN_1704154) was -2,24, the “logFC(D142_PHE - D142_BAS) SLC6A10P” value (ProbeID ILMN_1704446) was 3,23 and the “logFC(D142_PHE - D142_BAS) PTGR1” value (ProbeID ILMN_1704531) was 2,56. For the same molecule, the “logFC(D142_PHE - D142_BAS) TGM2” value (ProbeID ILMN_1705750, PHE vs BAS) was -2,98, the “logFC(D142_PHE - D142_BAS) DSE” value (ProbeID ILMN_1706498) was -2,19 and the “logFC(D142_PHE - D142_BAS) TFPI” value (ProbeID ILMN_1707124) was 2,04. For the same molecule, the “logFC(D142_PHE - D142_BAS) LRIG1” value (ProbeID ILMN_1707342) was 2,82, the “logFC(D142_PHE - D142_BAS) ANGPTL4” value (ProbeID ILMN_1707727) was 7,28 and the “logFC(D142_PHE - D142_BAS) CNN2” value (ProbeID ILMN_1708486) was -2,15. For the same molecule, the “logFC(D142_PHE - D142_BAS) ACAT2” value (ProbeID ILMN_1708672) was -2,03, the “logFC(D142_PHE - D142_BAS) ADM” value (ProbeID ILMN_1708934) was 2,48 and the “logFC(D142_PHE - D142_BAS) C9orf46” value (ProbeID ILMN_1709043) was -2,08. For the same molecule, the “logFC(D142_PHE - D142_BAS) EMILIN1” value (ProbeID ILMN_1711439) was -2,30, the “logFC(D142_PHE - D142_BAS) FAM20C” value (ProbeID ILMN_1712684) was -2,12 and the “logFC(D142_PHE - D142_BAS) WISP1” value (ProbeID ILMN_1713499) was -2,11. The “logFC(D142_PHE - D142_BAS) UBE2C” value (ProbeID ILMN_1714730) was -2,16, the “logFC(D142_PHE - D142_BAS) LOC346887” value (ProbeID ILMN_1714741) was 2,46 and the “logFC(D142_PHE - D142_BAS) NNMT” value (ProbeID ILMN_1715508, PHE vs BAS) was -2,62. The “logFC(D142_PHE - D142_BAS) ENAH” value (ProbeID ILMN_1716552) was -2,13, the “logFC(D142_PHE - D142_BAS) NGF” value (ProbeID ILMN_1716608) was 2,06 and the “logFC(D142_PHE - D142_BAS) TPM1” value (ProbeID ILMN_1716687) was -2,28. For the same molecule, the “logFC(D142_PHE - D142_BAS) MYOM2” value (ProbeID ILMN_1716733) was 2,05, the “logFC(D142_PHE - D142_BAS) TXNRD1” value (ProbeID ILMN_1717056) was 2,75 and the “logFC(D142_PHE - D142_BAS) C5orf46” value (ProbeID ILMN_1718866) was 3,15. For the same molecule, the “logFC(D142_PHE - D142_BAS) BNIP3L” value (ProbeID ILMN_1718961) was 2,88, the “logFC(D142_PHE - D142_BAS) FH” value (ProbeID ILMN_1719392, PHE vs BAS) was -2,67 and the “logFC(D142_PHE - D142_BAS) TNC” value (ProbeID ILMN_1719759, PHE vs BAS) was -3,17. For the same molecule, the “logFC(D142_PHE - D142_BAS) SLC7A5” value (ProbeID ILMN_1720373) was 2,69, the “logFC(D142_PHE - D142_BAS) CA12” value (ProbeID ILMN_1720998) was 2,41 and the “logFC(D142_PHE - D142_BAS) JMJD1A” value (ProbeID ILMN_1722532) was 3,45. The “logFC(D142_PHE - D142_BAS) HK2” value (ProbeID ILMN_1723486) was 2,90, the “logFC(D142_PHE - D142_BAS) IFI44L” value (ProbeID ILMN_1723912) was -2,15 and the “logFC(D142_PHE - D142_BAS) BNIP3” value (ProbeID ILMN_1724658) was 3,47. The “logFC(D142_PHE - D142_BAS) RIOK3” value (ProbeID ILMN_1724700) was 2,40, the “logFC(D142_PHE - D142_BAS) CTHRC1” value (ProbeID ILMN_1725090, PHE vs BAS) was -2,95 and the “logFC(D142_PHE - D142_BAS) CA9” value (ProbeID ILMN_1725139) was 3,69. The “logFC(D142_PHE - D142_BAS) GSTK1” value (ProbeID ILMN_1725241) was -2,02, the “logFC(D142_PHE - D142_BAS) SLC3A2” value (ProbeID ILMN_1726456) was 2,24 and the “logFC(D142_PHE - D142_BAS) CD248” value (ProbeID ILMN_1726589) was -2,13. For the same molecule, the “logFC(D142_PHE - D142_BAS) OLFML3” value (ProbeID ILMN_1727532, PHE vs BAS) was -3,25, the “logFC(D142_PHE - D142_BAS) AKR1A1” value (ProbeID ILMN_1728047) was -2,21 and the “logFC(D142_PHE - D142_BAS) PRC1” value (ProbeID ILMN_1728934, PHE vs BAS) was -2,53. The “logFC(D142_PHE - D142_BAS) COL5A2” value (ProbeID ILMN_1729117) was -2,21, the “logFC(D142_PHE - D142_BAS) C1QTNF6” value (ProbeID ILMN_1729288) was -2,08 and the “logFC(D142_PHE - D142_BAS) LEPR” value (ProbeID ILMN_1731966) was -2,03. For the same molecule, the “logFC(D142_PHE - D142_BAS) SHB” value (ProbeID ILMN_1732612) was 2,06, the “logFC(D142_PHE - D142_BAS) STEAP1” value (ProbeID ILMN_1733094, PHE vs BAS) was -2,54 and the “logFC(D142_PHE - D142_BAS) RASSF7” value (ProbeID ILMN_1733110) was 2,83. For the same molecule, the “logFC(D142_PHE - D142_BAS) COL12A1” value (ProbeID ILMN_1733756, PHE vs BAS) was -3,95, the “logFC(D142_PHE - D142_BAS) PPP1R3C” value (ProbeID ILMN_1736670) was 2,44 and the “logFC(D142_PHE - D142_BAS) TMEM119” value (ProbeID ILMN_1738116, PHE vs BAS) was -4,96. For the same molecule, the “logFC(D142_PHE - D142_BAS) SLC1A3” value (ProbeID ILMN_1738552) was -2,18, the “logFC(D142_PHE - D142_BAS) PLAT” value (ProbeID ILMN_1738742) was 2,16 and the “logFC(D142_PHE - D142_BAS) PRRX1” value (ProbeID ILMN_1739496, PHE vs BAS) was -2,36. The “logFC(D142_PHE - D142_BAS) FAM117B” value (ProbeID ILMN_1739942) was 2,48, the “logFC(D142_PHE - D142_BAS) CHSY3” value (ProbeID ILMN_1740407, PHE vs BAS) was -2,57 and the “logFC(D142_PHE - D142_BAS) ALDOA” value (ProbeID ILMN_1741148) was 2,28. For the same molecule, the “logFC(D142_PHE - D142_BAS) RFX5” value (ProbeID ILMN_1741200) was -2,04, the “logFC(D142_PHE - D142_BAS) PRICKLE1” value (ProbeID ILMN_1741356, PHE vs BAS) was -2,37 and the “logFC(D142_PHE - D142_BAS) C1QTNF5” value (ProbeID ILMN_1744487, PHE vs BAS) was -2,59. For the same molecule, the “logFC(D142_PHE - D142_BAS) ERO1L” value (ProbeID ILMN_1744963) was 3,84, the “logFC(D142_PHE - D142_BAS) CEP55” value (ProbeID ILMN_1747016) was -2,01 and the “logFC(D142_PHE - D142_BAS) PSMB8” value (ProbeID ILMN_1747195) was -2,24. The “logFC(D142_PHE - D142_BAS) CDKN2D” value (ProbeID ILMN_1748883) was 2,14, the “logFC(D142_PHE - D142_BAS) MZF1” value (ProbeID ILMN_1749838) was 2,45 and the “logFC(D142_PHE - D142_BAS) EGLN1” value (ProbeID ILMN_1749892) was 2,72. For the same molecule, the “logFC(D142_PHE - D142_BAS) IGFBP5” value (ProbeID ILMN_1750324) was 2,34, the “logFC(D142_PHE - D142_BAS) STXBP6” value (ProbeID ILMN_1750912) was 2,42 and the “logFC(D142_PHE - D142_BAS) HIST1H4H” value (ProbeID ILMN_1751120) was 2,86. The “logFC(D142_PHE - D142_BAS) C20orf46” value (ProbeID ILMN_1751228) was 2,17, the “logFC(D142_PHE - D142_BAS) P2RY11” value (ProbeID ILMN_1752226) was 2,23 and the “logFC(D142_PHE - D142_BAS) FAM13A” value (ProbeID ILMN_1752510) was 3,25. The “logFC(D142_PHE - D142_BAS) LMCD1” value (ProbeID ILMN_1754969, PHE vs BAS) was -2,67, the “logFC(D142_PHE - D142_BAS) PGK1” value (ProbeID ILMN_1755749) was 2,85 and the “logFC(D142_PHE - D142_BAS) ALDOC” value (ProbeID ILMN_1755974) was 2,83. For the same molecule, the “logFC(D142_PHE - D142_BAS) ANKRD37” value (ProbeID ILMN_1756417) was 4,25, the “logFC(D142_PHE - D142_BAS) COQ2” value (ProbeID ILMN_1756572, PHE vs BAS) was -2,49 and the “logFC(D142_PHE - D142_BAS) NDUFA4L2” value (ProbeID ILMN_1756573) was 5,61. For the same molecule, the “logFC(D142_PHE - D142_BAS) MUC1” value (ProbeID ILMN_1756992) was 2,56, the “logFC(D142_PHE - D142_BAS) HCFC1R1” value (ProbeID ILMN_1757877) was 2,05 and the “logFC(D142_PHE - D142_BAS) STC1” value (ProbeID ILMN_1758164) was 4,35. For the same molecule, the “logFC(D142_PHE - D142_BAS) HIST1H2BD” value (ProbeID ILMN_1758623) was 3,29, the “logFC(D142_PHE - D142_BAS) IDS” value (ProbeID ILMN_1758626) was 2,05 and the “logFC(D142_PHE - D142_BAS) FAM107B” value (ProbeID ILMN_1758672) was 2,44.
